Seven compounds from patent US8304382B2, “Anti-inflammatory and anti-allergic cyclic peptides” (Cristalia Productos Quimicos Farmaceuticos Ltda., priority 2006, dated 2012) can be followed below.

Bridge positions count the residues as written; N and C are the ends. Peptide text beside a SMILES is read from it.

Usually Ki stands for the equilibrium dissociation constant of an inhibitor or competing ligand from its target.

One experiment has as its target T1, trypsin (Bos taurus, UniProt P00760).
T1 construct: gene PRSS1
T1 sequence (P00760 24-246): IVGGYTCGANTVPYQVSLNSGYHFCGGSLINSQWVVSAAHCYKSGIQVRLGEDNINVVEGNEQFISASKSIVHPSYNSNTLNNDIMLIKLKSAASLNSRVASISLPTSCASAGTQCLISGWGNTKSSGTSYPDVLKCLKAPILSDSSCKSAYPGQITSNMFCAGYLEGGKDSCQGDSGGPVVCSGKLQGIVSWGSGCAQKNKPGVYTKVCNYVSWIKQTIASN
As to the kind of experiment: Inhibition of trypsin, determination of inhibition constants (Ki). Format: biochemical.
Conditions: not given
As to the method:
The substrate utilized was Abz-Phe-Arg-Ser-Ser-Arg-Gln-EDDnp (SEQ ID NO: 11), a fluorescent analog of bradykinin, purified by way of high pressure liquid chromatography, (HPLC) until purity greater than 95% (single peak) was achieved.
The hydrolysis reactions were conducted using a Hitachi. F-2000 spectrofluorometer, with the excitation and emission slits set at 10 and 20 nm, and the excitation and emission wavelengths at 320 and 420 nm, respectively. The temperature of the reaction cuvette was maintained at 37° C. in a thermostatically controlled compartment.
The enzymatic activity of trypsin (0.5-5 nM) was determined in 50 mM Tris-HCl buffer, pH 8.0, containing 20 mM NaCl at 37° C., with the addition of approximately 0.1-6.0 μM of the fluorescent substrates. The increase in fluorescence was monitored continually for 5 min in the spectrofluorometer. When necessary, the correction of the fluorescent reading was done using the empiric equation described by Araújo et. al., Biochemistry 25; 8519, 2000. Kinetic data were determined from the initial hydrolysis (consumption of substrate less than 10%) and calculations involving kinetic parameters (Km, Vmáx and kcat) were performed using the Michaelis-Menten equation furnished by the GRAFIT for Windows 3.0 program.
To determine the inhibition kinetics of trypsin with the peptides of the present invention, three substrate concentrations were used: a) corresponding to half of the value of Km (0.8 μM); b) corresponding to the whole value of Km (1.6 μM); c) corresponding to slightly more than double the value of Km (3.5 μM). […] Incubation carried out at 37° C. Tris-HCl buffer, pH 8.0, containing 20 mM NaCl at 37° C. For characterization of enzymatic inhibition, a Lineweaver-Burk plot was employed (1/V vs 1/S), and the value of Ki was determined from the relation between the apparent inhibition constant (Ki(app)) and the value of Km for the substrate: Ki(app)=[I]/[(v0/vi)−1] and Ki=Ki(app)/[(Km/[S])+1] where; [I]=inhibitor concentration; (v0/vi)=ratio of the hydrolysis velocities in the absence and presence of inhibitor, respectively. Km/[S]=ratio between Km of the substrate and substrate concentration.
Consider `CC[C@H](C)[C@H](N)C(=O)N1CCC[C@H]1C(=O)N[C@@H](CCCNC(=N)N)C(=O)N[C@H]1CSSC[C@@H](C(=O)O)NC(=O)[C@H](CCSC)NC(=O)[C@H](CCCCN)NC(=O)[C@H](C(C)C)NC(=O)CNC(=O)[C@@H]2CCCN2C(=O)[C@H](CCSC)NC(=O)[C@H](CCCCN)NC(=O)[C@H](CCCNC(=N)N)NC1=O` [SEQ ID NO: 1, Ile1-Pro2-Arg3-Cys4-Arg5-Lys6-Met7-Pro8-Gly9-Val10-Lys11-Met12-Cys13] (H-IPRCRKMPGVKMC-OH; disulfide 4-13), for which the Ki stood at 22.5 nM. On the same count and under the same terms, in the case of `CC[C@H](C)[C@@H]1NC(=O)[C@H]([C@@H](C)O)NC(=O)[C@@H](NC(=O)[C@H](CCC(N)=O)NC(=O)[C@H](CCC(=O)O)NC(=O)[C@@H](N)C(C)C)CSSC[C@@H](C(=O)O)NC(=O)[C@H](CC(=O)O)NC(=O)[C@H](CCCCN)NC(=O)[C@H](CCC(=O)O)NC(=O)[C@H](CC(=O)O)NC(=O)CNC(=O)[C@H]([C@@H](C)CC)NC1=O` [SEQ ID NO: 2, Val1-Glu2-Gln3-Cys4-Thr5-Ile6-Ile7-Gly8-Asp9-Glu10-Lys11-Asp12-Cys13] (H-VEQCTIIGDEKDC-OH; disulfide 4-13) it was 24 nM; in that of `CC[C@H](C)[C@@H]1NC(=O)[C@H]([C@@H](C)O)NC(=O)[C@@H](NC(=O)[C@H](CCC(N)=O)NC(=O)[C@H](CCC(=O)O)NC(=O)[C@@H](N)C(C)C)CSSC[C@@H](C(=O)O)NC(=O)[C@H](CC(=O)O)NC(=O)[C@H](CCCCN)NC(=O)[C@H](C)NC(=O)[C@H](CC(=O)O)NC(=O)CNC(=O)[C@H]([C@@H](C)CC)NC1=O` [SEQ ID NO: 3, Val1-Glu2-Gln3-Cys4-Thr5-Ile6-Ile7-Gly8-Asp9-Ala10-Lys11-Asp12-Cys13] (H-VEQCTIIGDAKDC-OH; disulfide 4-13), 63.6 nM; in that of `CC[C@H](C)[C@@H]1NC(=O)[C@H](CCC(=O)O)NC(=O)[C@H](CO)NC(=O)[C@@H](NC(=O)[C@H](CCC(N)=O)NC(=O)[C@H](CCC(N)=O)NC(=O)[C@@H](N)C(C)C)CSSC[C@@H](C(=O)O)NC(=O)[C@@H]2CCCN2C(=O)[C@H](CCCCN)NC(=O)[C@H](C)NC(=O)CNC(=O)[C@H](C)NC1=O` [SEQ ID NO: 4, Val1-Gln2-Gln3-Cys4-Ser5-Glu6-Ile7-Ala8-Gly9-Ala10-Lys11-Pro12-Cys13] (H-VQQCSEIAGAKPC-OH; disulfide 4-13), 42 nM. The same measure, in the same setting: in the case of `CC[C@H](C)[C@@H]1NC(=O)[C@H](CCCCN)NC(=O)[C@H](CC(=O)O)NC(=O)[C@@H](NC(=O)[C@H](CCCNC(=N)N)NC(=O)[C@H](Cc2c[nH]cn2)NC(=O)[C@@H](N)CC(C)C)CSSC[C@@H](C(=O)O)NC(=O)[C@@H]2CCCN2C(=O)[C@H](CCCCN)NC(=O)[C@H](C)NC(=O)[C@H](CC(=O)O)NC(=O)[C@H](C)NC1=O` [SEQ ID NO: 5, Leu1-His2-Arg3-Cys4-Asp5-Lys6-Ile7-Ala8-Asp9-Ala10-Lys11-Pro12-Cys13] (H-LHRCDKIADAKPC-OH; disulfide 4-13) it was 44 nM; in that of `CC[C@H](C)[C@H](N)C(=O)N1CCC[C@H]1C(=O)N[C@@H](CCCNC(=N)N)C(=O)N[C@H]1CSSC[C@@H](C(=O)O)NC(=O)[C@H](CCSC)NC(=O)[C@H](CCCCN)NC(=O)[C@H](C(C)C)NC(=O)CNC(=O)[C@@H]2CCCN2C(=O)[C@H](CCSC)NC(=O)[C@H](C)NC(=O)[C@H](CCCNC(=N)N)NC1=O` [SEQ ID NO: 6, Ile1-Pro2-Arg3-Cys4-Arg5-Ala6-Met7-Pro8-Gly9-Val10-Lys11-Met12-Cys13] (H-IPRCRAMPGVKMC-OH; disulfide 4-13), 24.2 nM; in that of `CC[C@H](C)[C@H](NC(C)=O)C(=O)N1CCC[C@H]1C(=O)N[C@@H](CCCNC(=N)N)C(=O)N[C@H]1CSSC[C@@H](C(=O)O)NC(=O)[C@H](CCSC)NC(=O)[C@H](CCCCN)NC(=O)[C@H](C(C)C)NC(=O)CNC(=O)[C@@H]2CCCN2C(=O)[C@H](CCSC)NC(=O)[C@H](CCCCN)NC(=O)[C@H](CCCNC(=N)N)NC1=O` [SEQ ID NO: 8, Ac-Ile1-Pro2-Arg3-Cys4-Arg5-Lys6-Met7-Pro8-Gly9-Val10-Lys11-Met12-Cys13] (Ac-IPRCRKMPGVKMC-OH; disulfide 4-13), 24.8 nM.

The same experiment, now with this note: FIG. 1.
In the case of `CC[C@H](C)[C@H](N)C(=O)N1CCC[C@H]1C(=O)N[C@@H](CCCNC(=N)N)C(=O)N[C@H]1CSSC[C@@H](C(=O)O)NC(=O)[C@H](CCSC)NC(=O)[C@H](CCCCN)NC(=O)[C@H](C(C)C)NC(=O)CNC(=O)[C@@H]2CCCN2C(=O)[C@H](CCSC)NC(=O)[C@H](CCCCN)NC(=O)[C@H](CCCNC(=N)N)NC1=O` [SEQ ID NO: 1, Ile1-Pro2-Arg3-Cys4-Arg5-Lys6-Met7-Pro8-Gly9-Val10-Lys11-Met12-Cys13] (H-IPRCRKMPGVKMC-OH; disulfide 4-13), the “type of inhibition of trypsin” value is listed as “simple, competitive inhibition”.
